Test results published in patent US12351580B2, “NLRP3 modulators” (Innate Tumor Immunity, Inc., priority 2017, dated 2025).

What was measured:
[1] = biological target: T1, TLR8 (Homo sapiens, UniProt Q9NR97); assay: In vitro human TLR8 binding reporter assay (HEK-Blue, NF-kB/AP1-inducible SEAP); type: cell-based
T1 construct: host or cells: HEK-Blue cells (human HEK) co-expressing TLR8 and an NF-kB/AP1-inducible SEAP reporter
T1 sequence (Q9NR97 27-1041): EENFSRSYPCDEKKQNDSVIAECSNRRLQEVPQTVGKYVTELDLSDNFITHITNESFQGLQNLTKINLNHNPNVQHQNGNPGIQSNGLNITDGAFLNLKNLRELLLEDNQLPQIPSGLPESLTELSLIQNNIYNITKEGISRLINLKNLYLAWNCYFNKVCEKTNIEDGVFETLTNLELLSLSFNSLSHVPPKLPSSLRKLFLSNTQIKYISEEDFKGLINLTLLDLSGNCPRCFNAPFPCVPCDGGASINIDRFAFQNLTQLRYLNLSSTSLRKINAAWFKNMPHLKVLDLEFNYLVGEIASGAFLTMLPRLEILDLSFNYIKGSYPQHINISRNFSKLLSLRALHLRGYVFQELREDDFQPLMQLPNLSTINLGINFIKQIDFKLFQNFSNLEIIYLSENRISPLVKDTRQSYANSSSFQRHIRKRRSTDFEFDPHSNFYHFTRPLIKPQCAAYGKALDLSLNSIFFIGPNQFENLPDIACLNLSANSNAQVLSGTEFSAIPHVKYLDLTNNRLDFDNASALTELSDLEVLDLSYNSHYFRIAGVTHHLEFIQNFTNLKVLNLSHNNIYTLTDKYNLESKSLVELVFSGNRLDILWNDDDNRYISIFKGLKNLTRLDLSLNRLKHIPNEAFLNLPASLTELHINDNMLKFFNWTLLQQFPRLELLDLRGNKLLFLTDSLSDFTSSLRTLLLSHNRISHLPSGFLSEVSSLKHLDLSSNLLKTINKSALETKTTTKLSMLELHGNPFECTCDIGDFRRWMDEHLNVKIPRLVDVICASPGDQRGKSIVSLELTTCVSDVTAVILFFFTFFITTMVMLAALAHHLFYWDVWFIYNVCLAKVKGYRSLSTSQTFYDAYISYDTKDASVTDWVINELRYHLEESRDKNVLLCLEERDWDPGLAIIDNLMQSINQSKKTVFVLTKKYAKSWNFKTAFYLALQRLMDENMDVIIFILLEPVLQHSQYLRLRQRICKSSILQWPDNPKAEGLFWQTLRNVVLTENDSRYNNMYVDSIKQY
How it was run: (§1)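 Reporter cells are plated at 15,000 per well and rested 24 h. Next day, test compounds or DMSO are dispensed, followed by 18 h incubation at 37 °C, 5% CO2.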

[2] = biological target: T2, TLR7 (Homo sapiens, UniProt Q9NYK1); assay: In vitro human TLR7 binding reporter assay (HEK-Blue, NF-kB/AP1-inducible SEAP); type: cell-based
T2 construct: host or cells: HEK-Blue cells (human HEK) co-expressing TLR7 and an NF-kB/AP1-inducible SEAP reporter
T2 sequence (Q9NYK1 27-1049): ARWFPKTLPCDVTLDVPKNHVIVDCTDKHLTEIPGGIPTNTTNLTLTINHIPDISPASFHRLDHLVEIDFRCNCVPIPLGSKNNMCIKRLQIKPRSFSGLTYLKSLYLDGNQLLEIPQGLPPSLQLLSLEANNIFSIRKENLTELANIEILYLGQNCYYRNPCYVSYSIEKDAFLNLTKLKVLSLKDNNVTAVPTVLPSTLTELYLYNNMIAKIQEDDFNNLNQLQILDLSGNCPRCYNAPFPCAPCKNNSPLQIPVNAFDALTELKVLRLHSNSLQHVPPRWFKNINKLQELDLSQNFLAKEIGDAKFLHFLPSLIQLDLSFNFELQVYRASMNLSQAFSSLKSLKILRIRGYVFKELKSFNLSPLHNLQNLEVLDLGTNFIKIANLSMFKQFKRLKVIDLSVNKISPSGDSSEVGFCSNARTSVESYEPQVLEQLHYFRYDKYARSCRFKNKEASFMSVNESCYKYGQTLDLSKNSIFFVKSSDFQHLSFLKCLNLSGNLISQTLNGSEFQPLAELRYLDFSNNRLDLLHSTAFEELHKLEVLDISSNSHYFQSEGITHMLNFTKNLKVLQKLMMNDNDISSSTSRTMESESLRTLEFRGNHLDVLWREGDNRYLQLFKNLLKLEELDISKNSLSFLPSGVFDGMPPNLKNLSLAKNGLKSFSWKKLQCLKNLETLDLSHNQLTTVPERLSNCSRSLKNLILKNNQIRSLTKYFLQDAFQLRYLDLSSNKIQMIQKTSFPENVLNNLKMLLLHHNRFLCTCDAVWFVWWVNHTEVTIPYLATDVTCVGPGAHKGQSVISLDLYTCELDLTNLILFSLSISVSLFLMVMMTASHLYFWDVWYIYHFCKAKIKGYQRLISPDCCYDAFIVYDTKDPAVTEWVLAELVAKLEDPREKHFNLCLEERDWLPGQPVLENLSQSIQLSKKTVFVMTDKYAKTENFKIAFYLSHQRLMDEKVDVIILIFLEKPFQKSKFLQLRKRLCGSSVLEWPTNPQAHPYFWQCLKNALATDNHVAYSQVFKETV
How it was run: as §1

CCN(Cc1nc2c(N)nc3cc(-c4ccc(C)cc4)ccc3c2[nH]1)C(C)=O [Compound 422]
EC50 ([1]; numeric bounds): > 10 µM
EC50 ([2]; numeric bounds): > 10 µM

Nc1nc2cc(C3CCCCCC3)ccc2c2[nH]c(CN3CCCC3=O)nc12 [Compound 332, 1-[(4-amino-7-cycloheptyl-1H-imidazo[4,5-c]quinolin-2-yl)methyl]pyrrolidin-2-one]
EC50 ([1]; activity range symbols): > 100 µM
EC50 ([2]; activity range symbols): > 100 µM

Nc1nc2cc(-c3ccc(C(F)(F)F)nc3)ccc2c2[nH]c(CN3CCCC3=O)nc12 [Compound 324, 1-[[4-amino-746-(trifluoromethyppyridin-3-yl]-1H-imidazo[4,5-c]quinolin-2-yl]methyl]pyrrolidin-2-one]
EC50 ([1]; activity range symbols): > 100 µM
EC50 ([2]; activity range symbols): > 100 µM

CCN(Cc1nc2c(N)nc3cc(-c4ccn(C)n4)ccc3c2[nH]1)C(=O)OC(C)(C)C [Compound 393]
EC50 ([1]; activity range symbols): > 100 µM
EC50 ([2]; activity range symbols): > 100 µM

Nc1nc2cc(-n3cccn3)ccc2c2[nH]c(CN3C[C@@H](c4ccccc4)CC3=O)nc12 [Compound 357]
EC50 ([1]; activity range symbols): > 100 µM
EC50 ([2]; activity range symbols): > 100 µM

CCN(Cc1nc2c(N)nc3cc(-c4cc[nH]n4)ccc3c2[nH]1)C(=O)OC [Compound 406]
EC50 ([1]; activity range symbols): > 100 µM
EC50 ([2]; activity range symbols): > 100 µM

COc1ncccc1-c1ccc2c(c1)nc(N)c1nc(CN3CCCC3=O)[nH]c12 [Compound 319, 1-[[4-amino-7-(2-methoxypyridin-3-yl)-1H-imidazo[4,5-c]quinolin-2-yl]methyl]pyrrolidin-2-one]
EC50 ([1]; activity range symbols): > 100 µM
EC50 ([2]; activity range symbols): > 100 µM

Nc1nc2cc(-c3cncc(F)c3)ccc2c2[nH]c(CN3CCCC3=O)nc12 [Compound 331, 1-[[4-amino-7-(5-fluoropyridin-3-yl)-1H-imidazo[4,5-c]quinolin-2-yl]methyl]pyrrolidin-2-one]
EC50 ([1]; activity range symbols): > 100 µM
EC50 ([2]; activity range symbols): > 100 µM

COc1ccc(Cn2c(CN3CCN(C)C3=O)nc3c(N)nc4cc(-c5cc[nH]n5)ccc4c32)cc1 [Compound 403]
EC50 ([1]; activity range symbols): > 100 µM
EC50 ([2]; activity range symbols): > 100 µM

N#Cc1ccccc1-c1ccc2c(c1)nc(N)c1nc(CN3CCCC3=O)[nH]c12 [Compound 315, 2-[4-amino-2-[(2-oxopyrrolidin-l-yl)methyl]-1H-imidazo[4,5-c]quinolin-7-yl]benzonitrile]
EC50 ([1]; activity range symbols): > 100 µM
EC50 ([2]; activity range symbols): > 100 µM

Nc1nc2cc(-c3cc[nH]n3)ccc2c2[nH]c(CN3C[C@H](c4ccccc4)CC3=O)nc12 [Compound 408]
EC50 ([1]; activity range symbols): > 100 µM
EC50 ([2]; activity range symbols): > 100 µM

COC(=O)N(C)Cc1nc2c(N)nc3cc(-c4cc[nH]n4)ccc3c2[nH]1 [Compound 405]
EC50 ([1]; activity range symbols): > 100 µM
EC50 ([2]; activity range symbols): > 100 µM

CCN(Cc1nc2c(N)nc3cc(-c4cc[nH]n4)ccc3c2n1C)C(=O)OC(C)(C)C [Compound 420]
EC50 ([1]; activity range symbols): > 100 µM
EC50 ([2]; activity range symbols): > 100 µM

CCN(Cc1nc2c(N)nc3cc(-c4cc[nH]n4)ccc3c2[nH]1)C(=O)c1ccc(Cl)cc1 [Compound 452, N-{[4-amino-7-(1H-pyrazol-3-yl)-1H-imidazo[4,5-c]quinolin-2-yl]methyl}-4-chloro-N-ethylbenzamide]
EC50 ([1]; numeric bounds): > 62 µM
EC50 ([2]; activity range symbols): > 100 µM

CN(Cc1nc2c(N)nc3cc(-c4cc[nH]n4)ccc3c2[nH]1)C(=O)c1ccccc1 [Compound 376]
EC50 ([1]; activity range symbols): > 100 µM
EC50 ([2]; activity range symbols): > 100 µM

N#Cc1ccc(-c2ccc3c(c2)nc(N)c2nc(CN4CCCC4=O)[nH]c23)cn1 [Compound 327, 5-[4-amino-2-[(2-oxopyrrolidin-l-yl)methyl]-1H-imidazo[4,5-c]quinolin-7-yl]pyridine-2-carbonitrile]
EC50 ([1]; activity range symbols): > 100 µM
EC50 ([2]; activity range symbols): > 100 µM

CCN(Cc1nc2c(N)nc3cc(-c4cc[nH]n4)ccc3c2[nH]1)C(=O)C1CC1 [Compound 118]
EC50 ([1]; activity range symbols): > 100 µM
EC50 ([2]; activity range symbols): > 100 µM

CCN(Cc1nc2c(N)nc3cc(-c4cc[nH]n4)ccc3c2[nH]1)C(=O)c1cccn1C [Compound 446, N-{[4-amino-7-(1H-pyrazol-3-yl)-1H-imidazo[4,5-c]quinolin-2-yl]methyl}-N-ethyl-1-methyl-1H-pyrrole-2-carboxamide]
EC50 ([1]; activity range symbols): > 100 µM
EC50 ([2]; activity range symbols): > 100 µM

CCOC(=O)N(CC)Cc1nc2c(N)nc3cc(-c4cc[nH]n4)ccc3c2[nH]1 [Compound 436, Ethyl N-{[4-amino-7-(1H-pyrazol-3-yl)-1H-imidazo[4,5-c]quinolin-2-yl]methyl}-N-ethylcarbamate]
EC50 ([1]; numeric bounds): > 50 µM
EC50 ([2]; numeric bounds): > 50 µM

CN(Cc1nc2c(N)nc3cc(-c4cc[nH]n4)ccc3c2[nH]1)S(C)(=O)=O [Compound 115]
EC50 ([1]; activity range symbols): > 100 µM
EC50 ([2]; activity range symbols): > 100 µM

Nc1nc2cc(-c3ccc(F)nc3)ccc2c2[nH]c(CN3CCCC3=O)nc12 [Compound 330, 1-[[4-amino-7-(6-fluoropyridin-3-yl)-1H-imidazo[4,5-c]quinolin-2-yl]methyl]pyrrolidin-2-one]
EC50 ([1]; activity range symbols): > 100 µM
EC50 ([2]; activity range symbols): > 100 µM

CNCc1nc2c(N)nc3cc(-c4cc[nH]n4)ccc3c2[nH]1 [Compound 401]
EC50 ([1]; activity range symbols): > 100 µM
EC50 ([2]; activity range symbols): > 100 µM

CN(C)C(=O)CCCn1c(CN2CCCC2=O)nc2c(N)nc3cc(Cl)ccc3c21 [Compound 337]
EC50 ([1]; activity range symbols): > 100 µM
EC50 ([2]; activity range symbols): > 100 µM

CCN(C=O)Cc1nc2c(N)nc3cc(-c4cc[nH]n4)ccc3c2[nH]1 [Compound 379]
EC50 ([1]; activity range symbols): > 100 µM
EC50 ([2]; activity range symbols): > 100 µM

CNCc1nc2c(N)nc3cc(-n4cccn4)ccc3c2[nH]1 [Compound 402]
EC50 ([1]; activity range symbols): > 100 µM
EC50 ([2]; activity range symbols): > 100 µM

CN1CCN(Cc2nc3c(N)nc4cc(-c5cc[nH]n5)ccc4c3[nH]2)C1=O [Compound 368]
EC50 ([1]; activity range symbols): > 100 µM
EC50 ([2]; activity range symbols): > 100 µM

Nc1nc2cc(-c3cccs3)ccc2c2[nH]c(CN3CCCC3=O)nc12 [Compound 309, 1-[(4-amino-7-thiophen-2-yl-1H-imidazo[4,5-c]quinolin-2-yl)methyl]pyrrolidin-2-one]
EC50 ([1]; activity range symbols): > 100 µM
EC50 ([2]; activity range symbols): > 100 µM

COC(=O)CCCn1c(CN2CCCC2=O)nc2c(N)nc3cc(Br)ccc3c21 [Compound 341]
EC50 ([1]; activity range symbols): > 100 µM
EC50 ([2]; activity range symbols): > 100 µM

COc1ccc(Cn2c(Cn3cnccc3=O)nc3c(N)nc4cc(-c5cc[nH]n5)ccc4c32)cc1 [Compound 414]
EC50 ([1]; activity range symbols): > 100 µM
EC50 ([2]; activity range symbols): > 100 µM

CCNCc1nc2c(N)nc3cc(-c4cccs4)ccc3c2[nH]1 [Compound 399]
EC50 ([1]; activity range symbols): > 100 µM
EC50 ([2]; activity range symbols): > 100 µM

CCN(Cc1nc2c(N)nc3cc(-c4ccsc4)ccc3c2[nH]1)C(=O)OC(C)(C)C [Compound 397]
EC50 ([1]; activity range symbols): > 100 µM
EC50 ([2]; activity range symbols): > 100 µM

Nc1nc2cc(-c3cccnc3)ccc2c2[nH]c(CN3CC(c4ccccc4)CC3=O)nc12 (stereo not drawn) [Compound 333, 1-[(4-amino-7-pyridin-3-yl-1H-imidazo[4,5-c]quinolin-2-yl)methyl]-4-phenylpyrrolidin-2-one]
EC50 ([1]; activity range symbols): > 100 µM
EC50 ([2]; activity range symbols): > 100 µM

N#Cc1ccc(-c2ccc3c(c2)nc(N)c2nc(CN4CCCC4=O)[nH]c23)cc1 [Compound 434]
EC50 ([1]; numeric bounds): > 30 µM
EC50 ([2]; numeric bounds): > 30 µM
